Earlier results, collected in patent publication US8802148B2, “Microparticles and method for their production” (Alrise Biosystems GmbH, priority 2002, dated 2014).
Where a name gives a salt, the structure may show the parent alone.

Settings: at 20-25° C.
For `CCOC(C)=O` [ethyl acetate], the “Solubility in water (w/w)” value is listed as 7.43%. In the case of `CCOC=O` [ethyl formate], the “Solubility in water (w/w)” value is listed as 8.4%. For `CC(=O)OC(C)C` [iIsopropyl acetate, isopropyl acetate], the “Solubility in water (w/w)” value is given as 3.09%. In the case of `COC(C)=O` [methyl acetate], the “Solubility in water (w/w)” value is given as 22.8%. For `CCCOC(C)=O` [propyl acetate], the “Solubility in water (w/w)” value is listed as 1.67%. In the case of `CCCOC=O` [propyl formate], the “Solubility in water (w/w)” value is given as 2.82%.
